Patent publication US8088892B2, “Inhibitors of proteins from the Rho-GEF family” (Centre National de la Recherche Scientifique (C.N.R.S.), priority 2002, dated 2012)
Where no end group is shown, it is not given here.

What was measured:
Format in all cases: cell-based
[1] = system: PC12 cells; assay: NGF-induced neurite outgrowth; settings: NGF 50 ng/ml, 1 to 24 hours
Experimental: PC12 were transfected with GFP-TRIPα (lack squares) or GFP (white diamonds) and subjected to a time-course exposure to NGF (50 ng/ml). At each time-point cells were fixed and the number of transfected cells with neurites was counted from at least 200 cells.
(§1) Since Trio is an activator of RhoA and is expressed in PC12 cells (Estrach et al., 2002), it was analysed whether TRIPα could interfere with serum-induced neurite retraction in NGF-differentiated PC12 cells. […] After NGF treatment, cells were subjected to serum addition (DMEM medium supplemented with 10% HS and 5% fetal calf serum (FCS)) from 0 to 15 min (FIG. 6A). Cells were then fixed and permeabilised (Estrach et al., 2002) and observed as described in FIG. 5. Cells with neurites are defined as cells with neurites of at least twice the length of the cell body.
However, since the NGF treatment was performed for 16 hours, it was still possible that the effect of TRIPα on the NGF-differentiation signal was masked by the long NGF exposure. To test this hypothesis, PC12 cells expressing GFP-TRIPα or […] were subjected to a time-course exposure to NGF (50 ng/ml) for 1 to 24 hours.

[2] = system: KalGEFD2 in PC12 cells; assay: NGF-induced neurite outgrowth in PC12 cells expressing KalGEFD2; settings: PC12 co-transfected with KalGEFD2, NGF 50 ng/ml
Description: (§2) Cells were transfected with HA-tagged TrioGEFD2 (left side of the figure), myc-tagged KalGEFD2 (middle of the figure) or RhoAV14 (a constitutively active mutant of RhoA) (right side of the figure), and with either GFP-TRIPα (white bars), GFP-TRIPβ (hatched bars) or GFP alone (black bars). Cells were processed as described in FIG. 5C and the number of co-transfected cells with neurites was counted.
(§3) Numerous reports have established Rho-GTPases as key regulators of neuronal morphology (Luo, 2000). In neuronal cell lines, activation of RhoG, Rac and Cdc42 induces neurite outgrowth, while RhoA stimulation antagonises this effect by promoting neurite retraction (Katoh et al., 2000; Kozma et al., 1997; Yamaguchi et al., 2001). The PC12 cell line is a useful cellular model for studying Nerve Growth Factor (NGF)-induced neuronal differentiation. PC12-E2 cells were plated on collagen-coated 12 mm coverslips as described previously (Estrach et al., 2002) and transfected with the Lipofectamine Plus reagent (Life Technologies) according to the manufacturer's instructions. […] Images were recorded using a Hamamatsu CCD camera. All transfections were repeated at least three times, and an average of 200 cells was counted each time. […]

[3] = system: TrioGEFD2-mediated RhoA activation; assay: RhoA activity assay (Rhotekin RBD pull-down) in COS cells; settings: COS cells co-transfected, 48 hours
Description: FIG. 5B represents the inhibitory effect of TRIPα on TrioGEFD2-mediated RhoA activation in intact cells using the RhoA activity assay, COS cells were transfected with GFP-TRIPα (left line), TrioGEFD2 (middle line) or both (right line). Cell lysates were subjected to GST-pulldown using the recombinant RBD (RhoA binding domain) fragment of the RhoA-specific effector Rhotekin. The presence of the GTP-bound form of RhoA and of the total RhoA protein was detected using a monoclonal anti-RhoA antibody and is represented in the upper two panels. GFP-TRIPα and TrioGEFD2 expression in the cell lysates is shown in the lower two panels.
Quantification of the RhoA activity assay is shown in the right part of the figure. The y-axis represents the ratio between active RhoA and total RhoA, in arbitrary units.
The Inventors then wanted to assess the inhibition by TRIPα of TrioGEFD2-mediated activation of endogenous RhoA in intact cells. To do so, the RhoA activity assay was used to detect the active GTP-bound form of RhoA (Ren et al., 1999). Briefly, COS cells were transfected as described in FIG. 5A with TrioGEFD2 in absence or in the presence of GFP-TRIAPα. 48 hours after transfection, cell lysates were subjected to GST-pull down using 20 μg of the recombinant RBD (RhoA binding domain) fragment of the RhoA-specific effector Rhotekin, that binds only to the activated GTP-bound form of RhoA.

[4] = system: NGF-differentiated PC12 cells; assay: Serum-induced neurite retraction; settings: 15 min after serum (10% HS and 5% FCS); NGF 50 ng/ml 16 hours
Experimental: FIG. 6A represents histograms quantifying the effects of GFP-TRIPα or GFP on serum induced neurite retraction in NGF-differentiated PC12 cells. The X-axis represents the time after serum addition in minutes and the Y-axis represents the percentage of transfected cells with neurites.
Cells were transfected with GFP-TRIPα (white bars) or GFP (black bars) and differentiated with NGF (50 ng/ml). Serum was added and neurite retraction was followed for 15 minutes. The number of transfected cells with neurites was counted from at least 200 cells in 3 independent experiments.
as §1

[5] = system: ectopically expressed TrioGEFD2 in PC12 cells; assay: NGF-induced neurite outgrowth in PC12 cells expressing TrioGEFD2; settings: PC12 co-transfected with TrioGEFD2, NGF 50 ng/ml 16 hours
Experimental: FIG. 5C represents the inhibition by TRIPα of the TrioGEFD2 effect in neuronal morphology. Immunofluorescence images of PC12 cells co-transfected with HA-TrioGEFD2 and either GFP-TRIPα (panels d, e, f) or GFP alone panels a, b, c) are shown. After 48 hours of expression, cells were treated for 16 hours with NGF (nerve growth factor) (50 ng/ml) and fixed. Expression of GFP and GFP-TRIPα was directly visualised (a, d) whereas overexpressed TrioGEFD2 was detected using the 12CA5 anti-HA antibody followed by AMCA-conjugated anti-mouse IgG (b, e). Filamentous actin was stained with Rhodamine-conjugated Phalloidin (c, f). Scale bar: 20 μm.
as §2
as §3, with “instructions. After transfection and differentiation with NGF (Promega, 50 ng/ml in DMEM medium supplemented with 0.5% horse serum (HS)) for 16 hours, PC12 cells were fixed and permeabilised as described (Estrach et al., 2002).” for “instructions.”

Substance: GFP-TRIPα: variable region of TRIAPα (TRIPα) fused to GFP, expressed from pEGFP-C3 plasmid (AREGADGAICGYNLATLVMLGPSERVFCPLCEPCSSDIYELM; cysteine pairing not given here; also: fused to GFP (carrier not in chain))
- Effect on NGF-induced neurite outgrowth, time course [1]: responded to NGF treatment more quickly than the control cells
- Effect on KalGEFD2 inhibition of NGF-induced neurite extension [2]: similarly inhibited by KalGEFD2 either with or without
- Inhibition of TrioGEFD2-mediated RhoA activation in intact cells [3]: significantly inhibited
- percentage of transfected cells with neurites after serum addition [4]: 32%
- Reversion of TrioGEFD2 inhibition of NGF-induced neurite outgrowth [5]: reverted the Trio-dependent inhibition
- percentage of co-transfected cells with neurites [5]: 45%
